Source: patent publication US20240317792A1, “CYCLIC DINUCLEOTIDE METAL COMPOUND, AND PREPARATION AND APPLICATION THEREOF” (HANGZHOU XINGAO BIOTECHNOLOGY CO., LTD., priority 2022, published 2024)

Experiments:
IRI mice (male SD mice) = test: Cerebral ischemia-reperfusion injury (IRI) model, TTC dyeing; type: in vivo; details: 2 h ischemia, 24 h reperfusion; caudal vein injection 5 mg/kg (Edaravone 6 mg/kg) after 30 min ischemia
Procedure: Experimental animals: healthy male mice, weighing 280-300 grams, purchased from Shanghai SLAC Laboratory Animal Co. Ltd, with quality certificate No. (SCXK (Shanghai) 2007-0005), and kept in clean animal houses.
Establishment of a mouse cerebral ischemia model of mice and experimental method: 280-300 grams of male […] mice were selected for experiments. The male SD mice were subjected to fasting without water deprivation for 12 h before operation followed by weighing, numbering and random grouping. The male SD mice were anesthetized by intraperitoneal injection of 10 wt. % chloral hydrate at a dosage of 0.3 mL/100 g. After the male SD mice had no pain reflexes, they were subjected to neck skin preparation followed by being fixed on a dissecting table in supine position. After neck skins were disinfected with sterilized cotton balls, about 1 cm of the neck skins were cut in mid-cervical to expose subcutaneous tissues, and subcutaneous fat and the fascia were bluntly plucked with curved tweezers to expose neck muscle groups. The common carotid arteries and their upwardly internal and external carotid branches were visualized by opening the digastric muscle. The external, internal, and common carotid arteries were carefully dissected, and a thin wire was threaded under each of the three arteries, and homemade plastic spacers were placed under the common carotid arteries. The external carotid arteries and proximal ends of the common carotid arteries were ligated. After the internal common carotid arteries were clamped by arterial clips, the common carotid arteries were stuck into with homemade curved hooks followed by picking up and leading in monofilaments. The spacers were removed, and the monofilaments were gently pushed into the internal common carotid arteries and craniums. […] At this time, blood supplies of the middle cerebral arteries from the anterior cerebral arteries were blocked. Thin wires under the internal carotid arteries were ligated to secure the monofilaments to prevent the monofilaments from retreating. Excess thin wires were cut, penicillin was applied to wounds to prevent infection. The male SD mice were sutured and placed under a warm lamp to keep warm. Timing was performed when blood flows of the middle cerebral arteries were blocked by the monofilaments. After 2 hours, the monofilaments were gently pulled out and the black marks were seen, then reperfusion can be achieved.
Triphenyl tetrazolium chloride (TTC) dyeing: After being injured by 2 h cerebral ischemia and 24 h reperfusion, the male SD mice were anesthetized with 0.3 mL/100 g dosage of 10 wt. % of chloral hydrate by intraperitoneal injection and subjected to abdominal aorta bleeding to reduce influence of blood in brains. Then whole heads of the male SD mice were removed immediately after decapitating, and washed with normal saline followed by being promptly put into a −20° C. refrigerator to freeze for 20 min. Frozen brains were collected and subjected to coronal sections, each 2 mm of thickness, by a blade. Then the coronal sections were subjected to dark dyeing in a 2 wt. % of TTC solution for 20 min and fixing in a 4 wt. % of polyformaldehyde solution for 6 h followed by photographing. Then, Photoshop software was used to define area and calculate, and a formula was represented as a percentage of cerebral ischemic area=a total area of white area/a total area of ischemic hemisphere×100%.
Drug preparation and experimental grouping: Edaravone was used as a positive control drug, and an Edaravone injection was 30 mg/20 mL. A single dosage for each of the male SD mice was 0.4 mL/100 g, that is, 6 mg/kg. The cyclic dinucleotide metal compounds prepared in Examples 1-5 were prepared into […] injection drugs with the normal saline. Each of the male SD mice was subjected to caudal vein injection with 0.4 mL/100 g dosage of drugs, that is, 5 mg/kg. The male SD mice were divided into 8 groups (10 mice in each group). […]

[1] = test system: Dendritic cells (DCs) (CD40\CD80\CD86\MHCII); test: Flow cytometry of dendritic cell activation markers after immunization; type: in vivo, C57BL/6 ordinary mice; details: fluorescence intensity (MFI), after 14 days of immunization
Text: Experimental animals: C57BL/6 ordinary mice, male, weighing 20-22 grams, 7-8 weeks old, purchased from Shanghai SLAC Laboratory Animal Co. Ltd.
The mice were randomly divided into 8 groups (10 mice in each group). The 8 groups were as listed follows: A: Negative control group (isotype control antibody group); B: blank group; C: cyclic dinucleotide group; D: [Li2(cGAMP)] group; E: [Mg(cGAMP)] group; F: [Zn(cGAMP)] group; G: [Mn(cGAMP)] group; and H: [Fe(cGAMP)] group. Isotype control flow antibody was purchased from eBiosciences, antibody magnetic strain was purchased from Militeny Biotech, and flow cytometry was purchased from BD company. After 14 days of immunization (immunization process was the same as that in the Example 12), spleens and lung tissues of the mice were collected, respectively mashed, filtered through 40 micron pores followed by 1000 rpm of centrifugation for 10 min to solate unlysed immune cells. Dendritic cells (DCs) (CD40\CD80\CD86\MHCII), T(CD8+) cells were separated, and added with corresponding FAC antibodies (diluted with Fluorescence-Activated Cell Sorting (FACS) buffer). Isotype control antibody was used as negative control. After antibody addition, the DCs and T (CD8+) cells were incubate for 1 h, centrifuged and washed by phosphate buffer saline (PBS) followed by analysis by the flow cytometry to sort suitable cells. Fluorescence intensity (MFI) of sorted cells was measured.

IFN-β = IFN-β content in blood induced by the compounds, over time by ELISA; type: in vivo; details: SD mice serum, sampled 0-24 h, peak of concentration change curve
Procedure: Experimental animals: SD mice, weighing 200-220 g, were purchased from Shanghai SLAC Laboratory Animal Co. Ltd.
Main test steps: The SD mice were randomly divided into 7 groups (10 mice in each group). The 7 groups were listed as follows: blank control group (injection of normal saline); cGAMP group; [Li2(cGAMP)] group; [Mg(cGAMP)] group; [Zn(cGAMP)] group; [Mn(cGAMP)] group; and [Fe(cGAMP)] group. At fixed time points (0 h, 1 h, 2 h, 4 h, 6 h, 8 h, 10 h, 12 h, 14 h, 16 h, 20 h, and 24 h), 1 mL of blood of each of the SD mice was taken through ophthalmic vein by a capillary, placed in a 1.5 mL of centrifuge tube followed by centrifugation for 30 min. Upper serum was collected and stored at −80° C. for use. Concentrations of cGAMP and IFN-β in the serum were determined by ELISA kit. Based on IFN-β induced by activation of innate immunity paths of the cGAMP and the cyclic dinucleotide metal compounds, a content of the IFN-β in the blood was detected, and stability and activation activity of immune path of the cGAMP and the cyclic dinucleotide metal compounds were evaluated. Concentration values (including cGAMP and IFN-β) in blood samples of the SD mice in each group were detected by the ELISA kit, and the concentration values and average values at each time point were calculated. A concentration change curve over time was drawn, and a peak of the concentration change curve was obtained.

| SMILES | Average value of percentage of cerebral ischemic area (IRI mice (male SD mice)) | Spleen CD40 [1] | Spleen CD80 [1] | Spleen CD86 [1] | Spleen MGCII [1] | Time to peak serum IFN-β concentration (IFN-β) |
| --- | --- | --- | --- | --- | --- | --- |
| Nc1nc2c(ncn2[C@@H]2O[C@@H]3COP(=O)([O-])O[C@H]4[C@@H](O)[C@H](n5cnc6c(N)ncnc65)O[C@@H]4COP(=O)([O-])O[C@@H]2[C@@H]3O)c(=O)[nH]1.[Zn+2] [[Zn(cGAMP)], zinc cyclic dinucleotide] | 23.52% | 264.7 | 245.7 | 42.6 | 424.5 | 6.2 h |
| Nc1nc2c(ncn2[C@@H]2O[C@@H]3COP(=O)(O)O[C@H]4[C@@H](O)[C@H](n5cnc6c(N)ncnc65)O[C@@H]4COP(=O)(O)O[C@@H]2[C@@H]3O)c(=O)[nH]1 [cGAMP, 2′3′-cGAMP, reference compound] | 26.86% | 120.5 | 112.1 | 16.5 | 208.1 | 4.0 h |
| Nc1nc2c(ncn2C2OC3COP(=O)([O-])OC4C(COP(=O)([O-])OC2C3O)OC(n2cnc3c(N)ncnc32)C4O)c(=O)[nH]1.[Fe+2] (stereo not drawn) [[Fe(cGAMP)], ferrous cyclic dinucleotide] | 26.78% | 236.8 | 134.6 | 24.1 | 247.1 | 5.6 h |
| Nc1nc2c(ncn2[C@@H]2O[C@@H]3COP(=O)([O-])O[C@H]4[C@@H](O)[C@H](n5cnc6c(N)ncnc65)O[C@@H]4COP(=O)([O-])O[C@@H]2[C@@H]3O)c(=O)[nH]1.[Li+].[Li+] [[Li2(cGAMP)], lithium cyclic dinucleotide] | 25.25% | 136.2 | 157.6 | 21.7 | 250.8 | 5.6 h |
| Nc1nc2c(ncn2C2OC3COP(=O)([O-])OC4C(COP(=O)([O-])OC2C3O)OC(n2cnc3c(N)ncnc32)C4O)c(=O)[nH]1.[Mn+2] (stereo not drawn) [[Mn(cGAMP)], manganese cyclic dinucleotide] | 25.56% | 255.9 | 132.6 | 26.3 | 276.3 | 6.0 h |
| Nc1nc2c(ncn2[C@@H]2O[C@@H]3COP(=O)([O-])O[C@H]4[C@@H](O)[C@H](n5cnc6c(N)ncnc65)O[C@@H]4COP(=O)([O-])O[C@@H]2[C@@H]3O)c(=O)[nH]1.[Mg+2] [[Mg(cGAMP)], magnesium cyclic dinucleotide] | 18.16% | 156.6 | 234.6 | 36.8 | 338.2 | 5.9 h |
